Reference: ChEMBL document CHEMBL1150311, “4-Methyl-5-phenyl triazoles as selective inhibitors of 11beta-hydroxysteroid dehydrogenase type I” (Bioorg Med Chem Lett, 2008)
pEC50, pIC50: −log10 of the molar value.

Columns and labels:
[1] = molecular target: 11-beta-hydroxysteroid dehydrogenase 1 (Homo sapiens, UniProt P28845); assay: Inhibition of human 11beta HSD1 by SPA assay
[2] = molecular target: 11-beta-hydroxysteroid dehydrogenase 1 (Mus musculus, UniProt P50172); assay: Inhibition of mouse 11beta HSD1 by SPA assay
Sequence of 11-beta-hydroxysteroid dehydrogenase 1 (Mus musculus, UniProt P50172) (P50172 whole entry): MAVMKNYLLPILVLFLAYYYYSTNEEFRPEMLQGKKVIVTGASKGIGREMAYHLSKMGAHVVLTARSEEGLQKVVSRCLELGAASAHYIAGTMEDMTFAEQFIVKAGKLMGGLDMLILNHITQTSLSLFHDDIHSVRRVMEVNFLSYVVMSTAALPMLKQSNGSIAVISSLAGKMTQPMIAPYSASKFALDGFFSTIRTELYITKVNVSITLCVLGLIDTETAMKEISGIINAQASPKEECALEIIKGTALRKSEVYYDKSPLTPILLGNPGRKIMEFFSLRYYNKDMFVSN

[3] = molecular target: T1, 11-beta-hydroxysteroid dehydrogenase type 2 (Mus musculus, UniProt P51661); assay: Inhibition of mouse 11beta HSD2
T1 sequence (P51661 whole entry): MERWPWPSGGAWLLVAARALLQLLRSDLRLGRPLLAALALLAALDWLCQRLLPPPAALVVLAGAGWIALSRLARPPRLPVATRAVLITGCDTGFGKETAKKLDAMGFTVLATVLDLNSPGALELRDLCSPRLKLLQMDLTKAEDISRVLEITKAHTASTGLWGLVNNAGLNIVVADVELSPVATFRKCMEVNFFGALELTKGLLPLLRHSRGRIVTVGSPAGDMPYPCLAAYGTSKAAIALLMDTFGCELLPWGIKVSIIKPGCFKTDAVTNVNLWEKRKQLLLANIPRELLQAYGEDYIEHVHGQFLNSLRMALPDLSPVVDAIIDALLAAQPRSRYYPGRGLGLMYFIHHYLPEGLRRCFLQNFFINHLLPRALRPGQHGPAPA

Mus musculus [4] = assay: Inhibition of [3H]cortisone to [3H]cortisol conversion in mouse at 10 mg/kg, po administered as single dose after 4 hrs; type: functional
Mus musculus [5] = assay: Inhibition of [3H]cortisone to [3H]cortisol conversion in mouse at 10 mg/kg, po administered as single dose after 16 hrs; type: functional
[6] = molecular target: T2, Nuclear receptor subfamily 1 group I member 2 (Homo sapiens, UniProt O75469); assay: Agonist activity at human PXR; type: functional
T2 sequence (O75469 whole entry): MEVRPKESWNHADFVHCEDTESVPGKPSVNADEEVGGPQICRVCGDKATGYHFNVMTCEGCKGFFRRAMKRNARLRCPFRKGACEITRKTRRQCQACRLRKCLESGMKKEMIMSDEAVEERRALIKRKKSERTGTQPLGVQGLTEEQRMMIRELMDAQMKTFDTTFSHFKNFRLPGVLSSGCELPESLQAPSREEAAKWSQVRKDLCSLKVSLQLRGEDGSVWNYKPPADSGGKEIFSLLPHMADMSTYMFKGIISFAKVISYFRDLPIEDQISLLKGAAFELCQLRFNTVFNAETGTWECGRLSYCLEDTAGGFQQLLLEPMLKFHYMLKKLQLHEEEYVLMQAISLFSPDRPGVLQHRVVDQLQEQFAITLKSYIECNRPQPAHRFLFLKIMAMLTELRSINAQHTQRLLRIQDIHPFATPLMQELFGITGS

[7] = molecular target: T2, Nuclear receptor subfamily 1 group I member 2; assay: Agonist activity at human PXR at 10 uM; type: functional
[8] = molecular target: T3, 11-beta-hydroxysteroid dehydrogenase type 2 (Homo sapiens) (UniProt P80365); conditions: at 4 µM
T3 sequence (whole entry): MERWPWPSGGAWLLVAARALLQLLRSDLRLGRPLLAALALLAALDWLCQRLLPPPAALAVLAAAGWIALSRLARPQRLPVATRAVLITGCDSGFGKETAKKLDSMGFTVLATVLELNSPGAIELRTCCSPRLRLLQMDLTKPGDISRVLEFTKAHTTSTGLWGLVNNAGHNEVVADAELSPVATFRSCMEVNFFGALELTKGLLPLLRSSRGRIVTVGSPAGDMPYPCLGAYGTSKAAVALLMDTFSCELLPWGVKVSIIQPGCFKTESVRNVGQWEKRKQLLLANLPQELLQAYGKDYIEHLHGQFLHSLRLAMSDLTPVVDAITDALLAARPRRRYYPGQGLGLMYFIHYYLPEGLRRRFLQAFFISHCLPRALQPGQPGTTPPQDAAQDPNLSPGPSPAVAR
Description: Inhibition of human 11beta HSD2 at 4 uM

[9] = molecular target: T4, 11-beta-hydroxysteroid dehydrogenase type 2 (Homo sapiens, UniProt P80365); assay: Inhibition of human 11beta HSD2
T4 sequence (P80365 whole entry): T3 sequence (whole entry)

Sequence of 11-beta-hydroxysteroid dehydrogenase 1 (Homo sapiens, UniProt P28845) (P28845 whole entry): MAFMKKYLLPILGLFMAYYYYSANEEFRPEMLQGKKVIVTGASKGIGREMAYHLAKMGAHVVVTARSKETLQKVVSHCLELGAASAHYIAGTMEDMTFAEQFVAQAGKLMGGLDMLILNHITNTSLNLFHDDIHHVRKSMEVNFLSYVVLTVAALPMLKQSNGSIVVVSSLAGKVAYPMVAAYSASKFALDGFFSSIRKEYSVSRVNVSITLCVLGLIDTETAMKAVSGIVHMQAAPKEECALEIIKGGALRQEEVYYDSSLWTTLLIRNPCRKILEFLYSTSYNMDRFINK

Row | Compound | pIC50 [1] | pIC50 [2] | pIC50 [3] | pEC50 [6] | Activity [7] [%] | inhibition [8] [%] | pIC50 [9] | inhibition in vivo at 10 mg/kg (Mus musculus [4]) [%] | inhibition in vivo at 10 mg/kg (Mus musculus [5]) [%]
1 | Cn1c(-c2ccc(-c3cccnc3)cc2Cl)nnc1C1(c2ccc(Cl)cc2)CCC1 | 9.00 | 8.89 | < 5.40 | 5.44 | 35 | – | – | 100 | 26
2 | Cn1c(-c2ccc(-n3ccnc3)cc2Cl)nnc1C1(c2ccc(Cl)cc2)CCC1 | 9.00 | 8.55 | < 5.40 | 4.92 | 21 | – | – | 78 | 10
3 | CCS(=O)(=O)c1ccc(-c2ccc(-c3nnc(C4(c5ccc(Cl)cc5)CCC4)n3C)c(Cl)c2)cc1 | 8.68 | 9.01 | < 5.40 | < 4.60 | -8 | 75 | – | 71 | 16
4 | Cn1c(-c2ccc(-c3ccccn3)cc2Cl)nnc1C1(c2ccc(Cl)cc2)CCC1 | 9.00 | 8.85 | < 5.40 | 5.62 | 98 | – | – | 41 | -5
5 | Cn1c(-c2ccc(-c3ccccc3)cc2Cl)nnc1C1(c2ccc(Cl)cc2)CCC1 | 9.00 | 8.85 | – | 5.77 | – | – | – | 99 | 85
6 | Cn1c(-c2ccc(-c3ccc(S(C)(=O)=O)cc3)cc2Cl)nnc1C1(c2ccc(Cl)cc2)CCC1 | 8.77 | 8.92 | < 5.40 | < 4.60 | 2 | – | < 5.40 | 20 | -5
7 | Cn1c(-c2ccc(-n3ccnc3S(C)(=O)=O)cc2Cl)nnc1C1(c2ccc(Cl)cc2)CCC1 | 7.85 | 8.03 | < 5.40 | 5.10 | 23 | – | – | – | –
8 | Cc1cn(-c2ccc(-c3nnc(C4(c5ccc(Cl)cc5)CCC4)n3C)c(Cl)c2)c(C2CC2)n1 | 8.01 | 8.22 | < 5.40 | 5.89 | 13 | – | – | 60 | 7
9 | CCSc1ccccc1-c1ccc(-c2nnc(C3(c4ccc(Cl)cc4)CCC3)n2C)c(Cl)c1 | 7.96 | 8.33 | < 5.40 | 5.77 | 48 | 54 | – | 51 | 1
10 | Cn1c(-c2ccc(-c3ccncc3)cc2Cl)nnc1C1(c2ccc(Cl)cc2)CCC1 | 9.00 | 8.70 | < 5.40 | 5.11 | 42 | – | – | 39 | 8

Further lines, with some results ahead:

Row | pIC50 [1] | pIC50 [2] | pIC50 [3] | pEC50 [6] | Activity [7] [%] | inhibition [8] [%] | pIC50 [9] | Compound | inhibition in vivo at 10 mg/kg (Mus musculus [4]) [%] | inhibition in vivo at 10 mg/kg (Mus musculus [5]) [%]
11 | 9.01 | 9.01 | < 5.40 | < 4.60 | -5 | – | < 5.40 | Cn1c(-c2ccc(-c3cccc(S(C)(=O)=O)c3)cc2Cl)nnc1C1(c2ccc(Cl)cc2)CCC1 | 96 | 36
12 | 9.01 | 8.92 | < 5.40 | 6.15 | 74 | – | < 5.40 | CCS(=O)(=O)c1ccccc1-c1ccc(-c2nnc(C3(c4ccc(Cl)cc4)CCC3)n2C)c(Cl)c1 | 56 | 6
13 | 9.01 | 9.02 | < 5.40 | 5.49 | 24 | – | – | Cn1c(-c2ccc(-n3ccnc3C(F)(F)F)cc2Cl)nnc1C1(c2ccc(Cl)cc2)CCC1 | 58 | 20
14 | 9.01 | 9.01 | < 5.40 | 4.60 | -31 | 59 | – | CCS(=O)(=O)c1cccc(-c2ccc(-c3nnc(C4(c5ccc(Cl)cc5)CCC4)n3C)c(Cl)c2)c1 | 93 | 29
